From patent EP0352817A2, “Monoclonal antibody to catecholamine metabolite and quantitative assay for catecholamine metabolite” (ORIENTAL YEAST CO., LTD., priority 1988, dated 1990)

System: monoclonal antibody specific against catecholamine metabolites containing 3-methoxy, 4-hydroxy group therein
Assay: standard curves for fractionation and determination of ℓ-VMA and HVA in competitive EIA
Type: binding, BALB/c mice
Settings: pH 8.0, amount of less than 1 µM
From the text: Then, VMA-SBA adsorbed onto the solid phase by the action other than the covalent bond was washed with 0.1 N acetic acid containing 0.1% (w/v) SDS.

| Compound | reaction in competitive EIA |
| --- | --- |
| COc1cc(C(O)C(=O)O)ccc1O (centres unmarked) [Vanillylmandelic acid] | reacted only |
| COc1cc(C(O)C(=O)O)ccc1O (single isomer, unassigned) [ℓ-VMA] | did not react |
